{
  "source": "patent US11110060B2",
  "about": "“Compositions and methods for delivering pharmaceutical agents” (Arizona Board of Regents on Behalf of the University of …, priority 2017, dated 2021)",
  "key": {"[1]": {"test_system": "chronic wounds in diabetic and healthy mice", "assay": "Wound healing in chronic wounds in diabetic (ob/ob) and healthy mice", "type": "in vivo", "experimental": "FIG. 25: suramin treatment results in increased granulation tissue and wound contraction. A) control. B) 0.15 μg surmain-treated; C) 1.5 μg surmain-treated; and d) 15 μg surmain-treated."}, "[2]": {"test_system": "human buccal cell line (T146)", "assay": "In vitro viability of human buccal cell line (T146), dose-response for safety/toxicity", "type": "cell-based", "details": "dose-response of sodium suramin, FIG. 8", "text": "FIG. 8: In vitro viability of human buccal cell line (T146): dose-response of sodium suramin for safety/toxicity.\nSuramin alone is amorphous or liquid-crystalline (FIGS. 5-7) and is safe in a human cell line (FIG. 8)."}, "[3]": {"details": "mice, 0.15, 1.5 and 15 μg suramin-treated vs control, FIG. 25"}},
  "data": [
    {"molecule": "Cc1ccc(C(=O)Nc2ccc(S(=O)(=O)O)c3cc(S(=O)(=O)O)cc(S(=O)(=O)O)c23)cc1NC(=O)c1cccc(NC(=O)Nc2cccc(C(=O)Nc3cc(C(=O)Nc4ccc(S(=O)(=O)O)c5cc(S(=O)(=O)O)cc(S(=O)(=O)O)c45)ccc3C)c2)c1", "note": "[suramin]", "values": [
      {"measurement": "granulation tissue", "setting": "[1]; [3]", "value": "increased"},
      {"measurement": "wound contraction", "setting": "[1]; [3]", "value": "increased"},
      {"measurement": "wound healing relative to controls", "setting": "[1]; ob/ob mice, suramin treatment at different concentrations, FIG. 24", "value": "accelerated wound healing"},
      {"measurement": "safety in a human cell line (in vitro viability)", "setting": "[2]", "value": "safe"}
    ]}
  ]
}
